IC50 data for 10 molecules are collected here from patent US9175011B2, “Morpholino substituted urea or carbamate derivatives as MTOR inhibitors” (CELLZOME LIMITED, priority 2011, dated 2015).

The target in experiment [1] is T1, mTOR (Homo sapiens, UniProt P42345).
T1 construct: Jurkat cells were homogenized in a Potter S homogenizer in lysis buffer; endogenous in cells; host or cells: Jurkat, clone E6-1 (ATCC TIB-152) lysate
The experiment in a line: mTOR kinobeads assay (Jurkat cell lysate, dot blot detection). It counts as binding. To be noted: read-out: Inhibition values (IC50) mTor. The procedure: (§1) The compounds of the present invention as described were tested in the mTOR kinobeads assay as described below. Briefly, test compounds (at various concentrations) and the affinity matrix (1:1 mixture of beads with immobilized phenylthiazole ligand 1 and beads with immobilized phenylmorpholin-chromen ligand; WO 2009/098021) were added to cell lysate aliquots and allowed to bind to the proteins in the lysate sample. After the incubation time the beads with captured proteins were separated from the lysate. Bound proteins were then eluted and the presence of mTOR, PI3K alpha (PI3Kα), PI3K beta (PI3Kb), PI3K gamma (PI3Kg), PI3K delta (PI3Kd) and DNA-dependent protein kinase (DNA-PK) was detected and quantified using a specific antibody in a dot blot procedure and the Odyssey infrared detection system. Dose response curves for individual kinases were generated and IC50 values calculated. Kinobeads assays for PI3 kinases (WO-A 2008/015013) and for kinase selectivity profiling (WO 2009/098021) have been previously described.
(§2) The affinity matrix (beads with immobilized phenylmorpholin-chromen ligand) was washed three times with 15 ml of 1×DP buffer containing 0.2% NP40 (IGEPAL® CA-630, Sigma, #13021) and then resuspended in 5.5 ml of 1×DP buffer containing 0.2% NP40 (10% beads slurry).
(§3) 5×DP buffer: 250 mM Tris-HCl pH 7.4, 25% Glycerol, 7.5 mM MgCl2, 750 mM NaCl, 5 mM Na3VO4, filter the 5×-lysis buffer through 0.22 μm filter and store in aliquots at −80° C. The 5×DP buffer is diluted to 1×DP buffer containing 1 mM DTT and 25 mM NaF.
(§4) Stock solutions of test compounds were prepared in DMSO. In a 96 well plate 30 μl solution of diluted test compounds at 5 mM in DMSO were prepared. Starting with this solution a 1:3 dilution series (9 steps) was prepared. For control experiments (no test compound) a buffer containing 2% DMSO was used. Compound PI-103 served as a positive control (Calbiochem catalogue number 528100).
(§5) Jurkat cells (ATCC catalogue number TIB-152 Jurkat, clone E6-1) were grown in 1 liter Spinner flasks (Integra Biosciences, #182101) in suspension in RPMI 1640 medium (Invitrogen, #21875-034) supplemented with 10% Fetal Bovine Serum (Invitrogen) at a density between 0.15×10^6 and 1.2×10^6 cells/ml. Cells were harvested by centrifugation, washed once with 1×PBS buffer (Invitrogen, #14190-094) and cell pellets were frozen in liquid nitrogen and subsequently stored at −80° C.
(§6) Jurkat cells were homogenized in a Potter S homogenizer in lysis buffer: 50 mM Tris-HCl, 0.8% NP40, 5% glycerol, 150 mM NaCl, 1.5 mM MgCl2, 25 mM NaF, 1 mM sodium vanadate, 1 mM DTT, pH 7.5. One complete EDTA-free tablet (protease inhibitor cocktail, Roche Diagnostics, 1873580) per 25 ml buffer was added. The material was dounced 10 times using a mechanized POTTER S, transferred to 50 ml falcon tubes, incubated for 30 minutes on ice and spun down for 10 min at 20,000 g at 4° C. (10,000 rpm in Sorvall SLA600, precooled). The supernatant was transferred to an ultracentrifuge (UZ)-polycarbonate tube (Beckmann, 355654) and spun for 1 hour at 100.000 g at 4° C. (33.500 rpm in Ti50.2, precooled). The supernatant was transferred again to a fresh 50 ml falcon tube, the protein concentration was determined by a Bradford assay (BioRad) and samples containing 50 mg of protein per aliquot were prepared. The samples were immediately used for experiments or frozen in liquid nitrogen and stored frozen at −80° C.
(§7) Jurkat cell lysate (approximately 50 mg protein per plate) was thawed in a water bath at room temperature and then kept on ice. To the thawed cell lysate 1×DP 0.8% NP40 buffer containing protease inhibitors (1 tablet for 25 ml buffer; EDTA-free protease inhibitor cocktail; Roche Diagnostics 1873580) was added in order to reach a final protein concentration of 5 mg/ml total protein. The diluted cell lysate was stored on ice. […]

The target in experiment [2] is T2, PI3K alpha (PI3Kα) (Homo sapiens, UniProt P42336).
T2 construct: Jurkat cells were homogenized in a Potter S homogenizer in lysis buffer; endogenous in cells; host or cells: Jurkat, clone E6-1 (ATCC TIB-152) lysate
The experiment in a line: kinobeads assay, PI3K alpha. The settings on record: Jurkat cell lysate, read-out: Inhibition values (IC50) PI3Ka. It counts as binding. The method, then: as §1, §2, §3, §4, §5, §6, §7

Experiment [3] addresses T3, PI3K beta (PI3Kb) (Homo sapiens, UniProt P42338).
T3 construct: Jurkat cells were homogenized in a Potter S homogenizer in lysis buffer; endogenous in cells; host or cells: Jurkat, clone E6-1 (ATCC TIB-152) lysate
The experiment in a line: kinobeads assay, PI3K beta. In kind it is binding. To be noted: Jurkat cell lysate, read-out: Inhibition values (IC50) PI3Kb. The procedure: as §1, §2, §3, §4, §5, §6, §7

Experiment [4] addresses T4, PI3K gamma (PI3Kg) (Homo sapiens, UniProt P48736).
T4 construct: Jurkat cells were homogenized in a Potter S homogenizer in lysis buffer; endogenous in cells; host or cells: Jurkat, clone E6-1 (ATCC TIB-152) lysate
The experiment in a line: kinobeads assay, PI3K gamma. It counts as binding. The settings on record: Jurkat cell lysate, read-out: Inhibition values (IC50) PI3Kg. The method, then: as §1, §2, §3, §4, §5, §6, §7

The target in experiment [5] is T5, PI3K delta (PI3Kd) (Homo sapiens, UniProt O00329).
T5 construct: Jurkat cells were homogenized in a Potter S homogenizer in lysis buffer; endogenous in cells; host or cells: Jurkat, clone E6-1 (ATCC TIB-152) lysate
The experiment in a line: kinobeads assay, PI3K delta. In kind it is binding. To be noted: Jurkat cell lysate, read-out: Inhibition values (IC50) PI3Kd. The procedure:
as §1, §2, §3, §4, §5, §6, §7

The target in experiment [6] is T6, DNA-dependent protein kinase (DNA-PK) (Homo sapiens, UniProt P78527).
T6 construct: Jurkat cells were homogenized in a Potter S homogenizer in lysis buffer; endogenous in cells; host or cells: Jurkat, clone E6-1 (ATCC TIB-152) lysate
T6 sequence (P78527 whole entry): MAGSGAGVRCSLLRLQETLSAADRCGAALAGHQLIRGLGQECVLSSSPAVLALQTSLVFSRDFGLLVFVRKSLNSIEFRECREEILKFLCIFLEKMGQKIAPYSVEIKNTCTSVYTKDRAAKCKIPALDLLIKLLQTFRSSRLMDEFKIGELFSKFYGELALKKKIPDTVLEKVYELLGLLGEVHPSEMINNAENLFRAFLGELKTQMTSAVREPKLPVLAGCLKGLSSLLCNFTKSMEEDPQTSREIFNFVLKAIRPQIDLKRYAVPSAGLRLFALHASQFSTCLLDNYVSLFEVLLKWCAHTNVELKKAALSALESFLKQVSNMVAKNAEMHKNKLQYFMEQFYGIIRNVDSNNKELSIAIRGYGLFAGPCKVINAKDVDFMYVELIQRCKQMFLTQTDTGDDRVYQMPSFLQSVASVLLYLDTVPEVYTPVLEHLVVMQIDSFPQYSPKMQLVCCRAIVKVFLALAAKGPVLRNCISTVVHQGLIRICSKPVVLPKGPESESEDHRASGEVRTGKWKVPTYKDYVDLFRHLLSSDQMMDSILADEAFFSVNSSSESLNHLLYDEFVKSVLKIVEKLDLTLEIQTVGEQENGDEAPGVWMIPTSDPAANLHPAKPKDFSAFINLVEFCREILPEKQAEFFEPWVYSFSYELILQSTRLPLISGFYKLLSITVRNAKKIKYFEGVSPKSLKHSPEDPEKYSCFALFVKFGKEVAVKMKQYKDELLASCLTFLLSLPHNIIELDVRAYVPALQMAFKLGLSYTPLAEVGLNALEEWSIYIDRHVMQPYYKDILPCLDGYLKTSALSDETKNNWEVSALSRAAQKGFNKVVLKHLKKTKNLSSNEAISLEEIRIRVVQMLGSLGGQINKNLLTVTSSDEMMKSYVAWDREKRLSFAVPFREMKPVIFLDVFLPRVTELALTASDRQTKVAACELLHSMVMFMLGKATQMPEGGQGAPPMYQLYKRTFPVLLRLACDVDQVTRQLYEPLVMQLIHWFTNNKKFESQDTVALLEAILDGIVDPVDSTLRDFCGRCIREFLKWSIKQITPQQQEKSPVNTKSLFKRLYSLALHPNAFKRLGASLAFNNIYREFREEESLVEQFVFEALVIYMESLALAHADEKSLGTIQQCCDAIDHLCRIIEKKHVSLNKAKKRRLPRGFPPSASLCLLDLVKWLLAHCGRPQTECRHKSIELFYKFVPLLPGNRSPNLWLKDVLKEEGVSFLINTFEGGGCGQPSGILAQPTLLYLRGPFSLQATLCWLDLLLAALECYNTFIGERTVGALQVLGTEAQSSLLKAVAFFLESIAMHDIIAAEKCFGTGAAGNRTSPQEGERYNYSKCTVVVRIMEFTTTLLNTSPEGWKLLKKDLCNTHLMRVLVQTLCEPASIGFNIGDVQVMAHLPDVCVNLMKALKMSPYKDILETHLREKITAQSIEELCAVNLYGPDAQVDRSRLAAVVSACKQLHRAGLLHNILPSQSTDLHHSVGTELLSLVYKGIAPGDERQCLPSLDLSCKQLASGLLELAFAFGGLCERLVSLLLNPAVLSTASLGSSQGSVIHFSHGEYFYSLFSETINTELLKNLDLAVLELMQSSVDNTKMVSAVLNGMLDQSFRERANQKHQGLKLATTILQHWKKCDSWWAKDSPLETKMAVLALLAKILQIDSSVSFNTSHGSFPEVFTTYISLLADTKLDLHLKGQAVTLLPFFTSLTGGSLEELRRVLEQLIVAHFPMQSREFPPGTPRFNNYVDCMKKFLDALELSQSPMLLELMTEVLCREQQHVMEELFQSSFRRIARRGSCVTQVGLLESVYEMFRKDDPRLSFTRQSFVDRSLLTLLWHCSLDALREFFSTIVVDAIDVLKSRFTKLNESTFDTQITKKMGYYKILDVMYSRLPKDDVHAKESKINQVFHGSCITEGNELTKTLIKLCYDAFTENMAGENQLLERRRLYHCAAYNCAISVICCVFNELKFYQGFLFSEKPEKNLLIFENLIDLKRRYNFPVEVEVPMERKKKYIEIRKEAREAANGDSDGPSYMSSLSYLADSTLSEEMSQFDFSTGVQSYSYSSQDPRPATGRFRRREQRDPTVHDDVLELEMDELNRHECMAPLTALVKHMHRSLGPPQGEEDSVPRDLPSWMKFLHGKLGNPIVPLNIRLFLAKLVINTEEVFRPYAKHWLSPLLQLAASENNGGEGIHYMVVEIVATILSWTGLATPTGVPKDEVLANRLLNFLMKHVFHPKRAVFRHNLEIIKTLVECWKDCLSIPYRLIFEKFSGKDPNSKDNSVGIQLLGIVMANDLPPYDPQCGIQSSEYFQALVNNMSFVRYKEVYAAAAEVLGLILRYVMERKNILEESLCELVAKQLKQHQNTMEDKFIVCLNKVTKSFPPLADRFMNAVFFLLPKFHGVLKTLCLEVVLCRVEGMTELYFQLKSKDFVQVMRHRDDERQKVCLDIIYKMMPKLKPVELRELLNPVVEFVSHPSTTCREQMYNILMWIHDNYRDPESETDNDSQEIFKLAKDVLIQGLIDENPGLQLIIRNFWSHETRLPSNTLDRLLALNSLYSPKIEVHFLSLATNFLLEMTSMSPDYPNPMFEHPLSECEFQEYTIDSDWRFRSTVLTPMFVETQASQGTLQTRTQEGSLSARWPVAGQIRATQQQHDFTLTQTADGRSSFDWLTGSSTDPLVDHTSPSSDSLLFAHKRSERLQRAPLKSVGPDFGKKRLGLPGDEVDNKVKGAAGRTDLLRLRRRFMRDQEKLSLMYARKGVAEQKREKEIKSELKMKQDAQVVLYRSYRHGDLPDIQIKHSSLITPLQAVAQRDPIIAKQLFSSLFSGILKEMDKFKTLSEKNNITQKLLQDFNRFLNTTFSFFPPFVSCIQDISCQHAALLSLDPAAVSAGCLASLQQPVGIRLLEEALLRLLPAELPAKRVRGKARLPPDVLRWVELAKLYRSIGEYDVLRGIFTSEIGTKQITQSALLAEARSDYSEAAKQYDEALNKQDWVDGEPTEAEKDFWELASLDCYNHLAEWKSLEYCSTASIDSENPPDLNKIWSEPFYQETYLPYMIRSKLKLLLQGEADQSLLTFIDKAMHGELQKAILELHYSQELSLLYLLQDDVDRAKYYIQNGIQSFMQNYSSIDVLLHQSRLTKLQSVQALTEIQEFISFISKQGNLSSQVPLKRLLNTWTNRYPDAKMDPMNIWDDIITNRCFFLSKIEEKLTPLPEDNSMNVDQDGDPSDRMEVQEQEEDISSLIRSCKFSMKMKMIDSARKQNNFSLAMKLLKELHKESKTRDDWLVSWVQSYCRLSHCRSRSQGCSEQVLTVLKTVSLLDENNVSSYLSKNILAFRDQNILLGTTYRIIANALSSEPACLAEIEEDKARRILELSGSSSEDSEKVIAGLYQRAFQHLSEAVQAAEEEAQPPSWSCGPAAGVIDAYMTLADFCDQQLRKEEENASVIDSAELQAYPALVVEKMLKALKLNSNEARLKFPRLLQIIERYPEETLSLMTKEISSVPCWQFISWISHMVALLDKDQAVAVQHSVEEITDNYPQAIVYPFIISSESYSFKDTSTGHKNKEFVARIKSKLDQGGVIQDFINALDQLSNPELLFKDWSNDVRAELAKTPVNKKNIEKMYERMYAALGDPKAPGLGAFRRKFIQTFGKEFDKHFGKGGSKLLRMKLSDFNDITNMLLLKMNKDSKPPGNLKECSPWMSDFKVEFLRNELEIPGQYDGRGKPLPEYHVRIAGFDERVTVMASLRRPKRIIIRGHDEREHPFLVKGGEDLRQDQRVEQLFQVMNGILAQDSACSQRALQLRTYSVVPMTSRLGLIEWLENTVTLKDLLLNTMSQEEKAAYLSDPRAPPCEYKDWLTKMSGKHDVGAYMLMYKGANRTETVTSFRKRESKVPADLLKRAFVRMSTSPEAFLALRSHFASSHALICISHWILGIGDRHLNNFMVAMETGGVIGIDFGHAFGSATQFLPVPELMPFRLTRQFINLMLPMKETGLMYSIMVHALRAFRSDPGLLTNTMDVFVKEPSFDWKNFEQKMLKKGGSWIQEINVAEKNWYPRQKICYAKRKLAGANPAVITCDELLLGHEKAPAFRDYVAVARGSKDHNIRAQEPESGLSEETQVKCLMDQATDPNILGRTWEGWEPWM
The experiment in a line: kinobeads assay, DNA-PK. It counts as binding. The settings on record: Jurkat cell lysate, read-out: Inhibition values (IC50) DNA-PK. The method, then:
as §1, §2, §3, §4, §5, §6, §7

For experiment [7], the system named is S6RP serine-240/244 phosphorylation. The experiment in a line: In vitro phospho-S6 cellular assay (HEK293T/17). In kind it is cell-based. The settings on record: Homo sapiens; HEK293T/17 cells, 2 hours, pS6RP Ser240/244; read-out: Inhibition values (IC50) pS6. The text has this:
Activation of mTOR signaling results in phosphorylation of several downstream targets. In cells, mTOR exists in two different protein complexes. The mTOR Complex-1 (mTORC1) phosphorylates and activates S6 Kinase 1 (S6K1) and S6 Kinase 2 (S6K2) (also known as p70S6K) which then phosphorylate S6 Ribosomal Protein (S6RP) (also known as RPS6)3. S6RP is phosphorylated on serine 235, senile 236, serine 240 and serine 244 by both pS6K1 and pS6K2. The mTOR Complex-2 (mTORC2) phosphorylates AKT on serine 473 which activates the AKT signaling pathway.
The assay measures a test compound's inhibition of S6RP serine-240/244 phosphorylation and inhibition of Akt serine-473 phosphorylation in human embryonic kidney derived HEK293T/17 cells (ATCC CRL-11268).
The HEK293T/17 cell line is maintained in DMEM media (Invitrogen catalogue number 41965-039) supplemented with 10% FCS at 37° C. in a 5% CO2 humidified incubator. Cells are seeded in 96-well plates at 40,000 cells/well (pS6RP S240/244 assay) or 80,000 cells/well (pAkt 5473 assay) in 90 μl growth media (DMEM, 2% FCS). Plates are incubated for 1 hour in a humidified incubator to allow the cells to adhere. Cells are treated with 8 concentrations of test compounds or DMSO alone for controls (final DMSO concentration 0.1%) and incubated at 37° C. for 2 hours. Then 20 μl of 5× concentrated lysis buffer (750 mM NaCl, 100 mM Tris pH7.4, 5 mM ADTA, 5 mM EGTA, 5% Triton X-100) is added, plates are sealed and incubated for 15 minutes at 4° C. with gentle shaking After cell lysis, 25 μl cell lysate is transferred to a MesoScale plate coated with an antibody to pS6RP Ser240/244 (MesoScale Discovery K150DGD-3) or an antibody to pAkt Ser 473 (MesoScale Discovery K151DGD-3). Plates have been blocked before by incubation with 150 μl MesoScale Discovery Blocking Solution-A for 1 hour at room temperature followed by washing with 150 μl 1×Tris wash buffer per well. After the transfer of the cell lysate to the MSD plate, the pS6RP (or pAkt) protein is captured on the coated antibody by incubation at room temperature for 1 hour with gentle shaking. After the capture step the plate is washed three times with 150 μl of 1× Tris wash buffer per well. Then 25 μl detection antibody conjugated with a Sulfo-Tag is added and incubated for 1 hour at room temperature with gentle shaking. Subsequently the antibody solution is removed and the plate is washed 3 times with 150 μl 1×Tris wash buffer per well and 150 μl Read buffer is added. The plates are analysed on a MSD 2400 Plate Reader (MesoScale Discovery). Data analysis is performed using nonlinear regression for a sigmoidal dose-response with a variable slope.

Broadly, the IC50 is the concentration at which inhibition is half-maximal. For the molecule `C[C@H]1COCCN1c1nc(-c2ccc(NC(=O)NCCC(F)(F)F)cc2)nc(-c2ccccc2S(C)(=O)=O)n1` [Example 31, (S)-1-(4-(4-(3-methylmorpholino)-6-(2-(methylsulfonyl)phenyl)-1,3,5-triazin-2-yl)phenyl)-3-(3,3,3-trifluoropropyl)urea], the 50% inhibitory concentration (IC50) in experiment [1] was 1 to 10 µM; in experiment [2], > 10 µM; in experiment [3] it was > 10 µM; in experiment [4], > 10 µM; in experiment [5], > 10 µM; in experiment [6], > 10 µM.

Take `C[C@H]1COCCN1c1nc(-c2ccc(NC(=O)NCCF)cc2)nc(-c2cc(F)ccc2S(C)(=O)=O)n1` [Example 44, (S)-1-(4-(4-(5-fluoro-2-(methylsulfonyl)phenyl)-6-(3-methylmorpholino)-1,3,5-triazin-2-yl)phenyl)-3-(2-fluoroethyl)urea]: the IC50 in experiment [1] is 0.1 to 1 µM; in experiment [2] it was > 10 µM; in experiment [6] it was > 10 µM; in experiment [7] it was < 0.1 µM.

Take `C[C@H]1COCCN1c1nc(-c2ccc(NC(=O)NC3CCCCC3)cc2)nc(-c2ccccc2S(C)(=O)=O)n1` [Example 28, (S)-1-cyclohexyl-3-(4-(4-(3-methylmorpholino)-6-(2-(methylsulfonyl)phenyl)-1,3,5-triazin-2-yl)phenyl)urea]: the IC50 was 1 to 10 µM in experiment [1]; > 10 µM in experiment [2]; > 10 µM in experiment [3]; > 10 µM in experiment [4]; > 10 µM in experiment [5]; > 10 µM in experiment [6].

For `CS(=O)(=O)c1ccc(F)cc1-c1nc(-c2ccc(NC(=O)NC3CC3)cc2)nc(N2CC3CCC(C2)O3)n1` [Example 39, 1-(4-(4-(8-oxa-3-azabicyclo[3.2.1]octan-3-yl)-6-(5-fluoro-2-(methylsulfonyl)phenyl)-1,3,5-triazin-2-yl)phenyl)-3-cyclopropylurea], the half-maximal inhibitory concentration (IC50) in experiment [1] was 1 to 10 µM; in experiment [2], > 10 µM; in experiment [7] it was 0.1 to 1 µM.

Consider `CCNC(=O)Nc1ccc(-c2nc(-c3cc(F)ccc3S(C)(=O)=O)nc(N3CCOC[C@@H]3C)n2)cc1` [Example 42, (S)-1-ethyl-3-(4-(4-(5-fluoro-2-(methylsulfonyl)phenyl)-6-(3-methylmorpholino)-1,3,5-triazin-2-yl)phenyl)urea], for which the IC50 in experiment [1] is 0.1 to 1 µM; in experiment [2] it was > 10 µM; in experiment [6] it was > 10 µM; in experiment [7], < 0.1 µM.

In the case of `CCNC(=O)Nc1ccc(-c2nc(-c3cccnc3S(C)(=O)=O)nc(N3CCOC[C@@H]3C)n2)cc1` [Example 40, (S)-1-ethyl-3-(4-(4-(3-methylmorpholino)-6-(2-(methylsulfonyl)pyridin-3-yl)-1,3,5-triazin-2-yl)phenyl)ure], the IC50 was < 0.1 µM in experiment [1], 1 to 10 µM in experiment [2], > 10 µM in experiment [6] and < 0.1 µM in experiment [7].

On to `C[C@H]1COCCN1c1nc(-c2ccc(NC(=O)NCCC(N)C(F)(F)F)cc2)nc(-c2ccccc2S(C)(=O)=O)n1` (stereo partly drawn) [Example 37, 1-(3-amino-4,4,4-trifluorobutyl)-3-(4-(4-((S)-3-methylmorpholino)-6-(2-(methylsulfonyl)phenyl)-1,3,5-triazin-2-yl)phenyl)urea], for which the results for the IC50 in experiment [1] and in experiment [2] were 1 to 10 µM and > 10 µM, respectively.

Regarding `C[C@H]1COCCN1c1nc(-c2ccc(NC(=O)NCC(F)F)cc2)nc(-c2cc(F)ccc2S(C)(=O)=O)n1` [Example 43, (S)-1-(2,2-difluoroethyl)-3-(4-(4-(5-fluoro-2-(methylsulfonyl)phenyl)-6-(3-methylmorpholino)-1,3,5-triazin-2-yl)phenyl)urea], the IC50 in experiment [1] was 0.1 to 1 µM; in experiment [2] it was > 10 µM; in experiment [6], > 10 µM; in experiment [7], < 0.1 µM.

As for `CNC(=O)Nc1ccc(-c2nc(-c3cccnc3S(C)(=O)=O)nc(N3CCOC[C@@H]3C)n2)cc1` [Example 41, (S)-1-methyl-3-(4-(4-(3-methylmorpholino)-6-(2-(methylsulfonyl)pyridin-3-yl)-1,3,5-triazin-2-yl)phenyl)urea], the IC50 in experiment [1] is < 0.1 µM; in experiment [2], 1 to 10 µM; in experiment [6], > 10 µM; in experiment [7] it was < 0.1 µM.

`CNC(=O)Nc1ccc(-c2nc(-c3cc(F)ccc3S(C)(=O)=O)nc(N3CCOC[C@@H]3C)n2)cc1` [Example 2, (S)-1-(4-(4-(5-fluoro-2-(methylsulfonyl)phenyl)-6-(3-methylmorpholino)-1,3,5-triazin-2-yl)phenyl)-3-methylurea]: the IC50 in experiment [1] was 0.1 to 1 µM; in experiment [2] it was > 10 µM; in experiment [6], > 10 µM; in experiment [7] it was < 0.1 µM.
